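Values below derive from 48-hour exposures of cells grown in 96-well plates, with endpoints linearly interpolated between the two concentrations bracketing the appropriate inhibition level. Abbreviation: GI50, concentration required for 50% inhibition of growth.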 The source made the active and inactive calls. Cut-off read from the data, not from the text of the source: active = GI50 up to about 1.1 µM and inactive = higher.
Assays:
Assay in all cases: DTP human tumour cell line panel, 48 h
[1] = system: 786-0
[2] = system: ACHN
[3] = system: COLO 205
[4] = system: HCT-15
[5] = system: Hs-578T
[6] = system: IGROV-1
[7] = system: MDA-MB-435
[8] = system: MDA-N
[9] = system: Malme-3M
[10] = system: NCI-H522
[11] = system: OVCAR-4
[12] = system: OVCAR-5
[13] = system: SF-539
[14] = system: SK-MEL-28
[15] = system: SK-MEL-5
[16] = system: SN12C
[17] = system: SR
[18] = system: U-251
[19] = system: UACC-62
[20] = system: UO-31

| Compound | GI50 [1] | GI50 [2] | GI50 [3] | GI50 [4] [µM] | GI50 [5] | GI50 [6] | GI50 [7] | GI50 [8] | GI50 [9] | GI50 [10] | GI50 [11] | GI50 [12] | GI50 [13] | GI50 [14] | GI50 [15] | GI50 [16] | GI50 [17] | GI50 [18] | GI50 [19] | GI50 [20] |
| --- | --- | --- | --- | --- | --- | --- | --- | --- | --- | --- | --- | --- | --- | --- | --- | --- | --- | --- | --- | --- |
| CN(C)CC1CCCC(CN2CCCCC2)C1=O (stereo not given) | 2.74 µM (inactive) | 6.58 µM (inactive) | 3.08 µM (inactive) | 8.83 | 19.7 µM (inactive) | 17 µM (inactive) | 17.1 µM (inactive) | 14.4 µM (inactive) | 3.33 µM (inactive) | 0.0764 µM (active) | 4.25 µM (inactive) | 31.4 µM (inactive) | 17.5 µM (inactive) | 13.9 µM (inactive) | 18.7 µM (inactive) | 8.32 µM (inactive) | 10.8 µM (inactive) | > 54.6 µM (inactive) | 18.3 µM (inactive) | 17.2 µM (inactive) |
| O=C1C(=C2SC(c3ccccc3)(c3ccccc3)c3ccccc32)C(=O)c2ccccc21 | > 100 µM (inactive) | > 100 µM (inactive) | > 100 µM (inactive) | > 100 | > 100 µM (inactive) | > 100 µM (inactive) | > 100 µM (inactive) | > 100 µM (inactive) | > 100 µM (inactive) | > 100 µM (inactive) | > 100 µM (inactive) | > 100 µM (inactive) | > 100 µM (inactive) | > 100 µM (inactive) | > 100 µM (inactive) | > 100 µM (inactive) | 65.2 µM (inactive) | > 100 µM (inactive) | > 100 µM (inactive) | > 100 µM (inactive) |
| Nc1cc2c3c(cccc3c1)C(=O)N(c1ccc(OCCN3CCCC3)cc1)C2=O | 15.2 µM (inactive) | 13.5 µM (inactive) | 14.1 µM (inactive) | 13.8 | 18.7 µM (inactive) | 16.3 µM (inactive) | 18.7 µM (inactive) | 16.6 µM (inactive) | 17.7 µM (inactive) | 16 µM (inactive) | 17.1 µM (inactive) | 21.1 µM (inactive) | 13.3 µM (inactive) | 20.3 µM (inactive) | 18.7 µM (inactive) | 21.8 µM (inactive) | 17.9 µM (inactive) | 25.6 µM (inactive) | 16.6 µM (inactive) | 15.1 µM (inactive) |
| O=C1NC(Nc2cccc(Cl)c2)=N/C1=C\c1ccc(Cl)c(Cl)c1 | 3.76 µM (inactive) | 5.05 µM (inactive) | 3.88 µM (inactive) | 5.28 | 3.04 µM (inactive) | 5.66 µM (inactive) | 4.85 µM (inactive) | 4.52 µM (inactive) | 14.1 µM (inactive) | 2.52 µM (inactive) | 1.9 µM (inactive) | 7.91 µM (inactive) | 9.31 µM (inactive) | 12.7 µM (inactive) | 6.18 µM (inactive) | 2.54 µM (inactive) | 2.82 µM (inactive) | 4.02 µM (inactive) | 10.1 µM (inactive) | 7.29 µM (inactive) |
| O=C(c1ccccc1)c1ccc2nc3n(c2c1)C(c1c(Cl)cccc1Cl)SC3 (stereo not given) | 3.86 µM (inactive) | 7.69 µM (inactive) | 4.88 µM (inactive) | 3.35 | 3.67 µM (inactive) | 4.48 µM (inactive) | 1.77 µM (inactive) | 1.63 µM (inactive) | 2.81 µM (inactive) | 1.74 µM (inactive) | 7.45 µM (inactive) | 3.95 µM (inactive) | 5.68 µM (inactive) | 10.4 µM (inactive) | 3.24 µM (inactive) | 7.64 µM (inactive) | 1.43 µM (inactive) | 5.58 µM (inactive) | 4.06 µM (inactive) | 3.17 µM (inactive) |
| CC(C)c1nc(Cl)c(Cl)c(Cl)n1 | 2.99 µM (inactive) | 0.769 µM (active) | 2.71 µM (inactive) | 0.695 | 2.76 µM (inactive) | 3.08 µM (inactive) | 4.2 µM (inactive) | 4.35 µM (inactive) | 0.608 µM (active) | 0.759 µM (active) | 15.5 µM (inactive) | 5.77 µM (inactive) | 9.2 µM (inactive) | 14.2 µM (inactive) | 16.2 µM (inactive) | 4.24 µM (inactive) | 0.431 µM (active) | 3.42 µM (inactive) | 8.41 µM (inactive) | 1.19 µM (inactive) |
| C[N+]1(C)C2CC(OC(=O)C(CO)c3ccccc3)CC1C1OC12 (stereo not given) | > 100 µM (inactive) | > 100 µM (inactive) | > 100 µM (inactive) | > 100 | > 100 µM (inactive) | > 100 µM (inactive) | > 100 µM (inactive) | > 100 µM (inactive) | > 100 µM (inactive) | > 100 µM (inactive) | > 100 µM (inactive) | > 100 µM (inactive) | > 100 µM (inactive) | > 100 µM (inactive) | > 100 µM (inactive) | > 100 µM (inactive) | > 100 µM (inactive) | > 100 µM (inactive) | > 100 µM (inactive) | > 100 µM (inactive) |
| C1=N\CCNCC/N=C\c2ccc(cc2)OCc2cccc(n2)COc2ccc/1cc2 | 40.2 µM (inactive) | 29.7 µM (inactive) | > 100 µM (inactive) | 97.1 | 23.5 µM (inactive) | 66.7 µM (inactive) | > 100 µM (inactive) | > 100 µM (inactive) | 90.8 µM (inactive) | 26.9 µM (inactive) | 97.3 µM (inactive) | > 100 µM (inactive) | 47.1 µM (inactive) | > 100 µM (inactive) | 65.8 µM (inactive) | > 100 µM (inactive) | > 100 µM (inactive) | 32 µM (inactive) | > 100 µM (inactive) | > 100 µM (inactive) |
| CSc1ncnc2c1cnn2CCCCO | > 100 µM (inactive) | > 100 µM (inactive) | > 100 µM (inactive) | > 100 | > 100 µM (inactive) | > 100 µM (inactive) | > 100 µM (inactive) | > 100 µM (inactive) | > 100 µM (inactive) | > 100 µM (inactive) | > 100 µM (inactive) | > 100 µM (inactive) | > 100 µM (inactive) | > 100 µM (inactive) | > 100 µM (inactive) | > 100 µM (inactive) | > 100 µM (inactive) | > 100 µM (inactive) | > 100 µM (inactive) | > 100 µM (inactive) |
| N#CSc1[nH]cnc1C(N)=O | 40.9 µM (inactive) | > 100 µM (inactive) | > 81.8 µM (inactive) | > 100 | > 100 µM (inactive) | > 100 µM (inactive) | > 100 µM (inactive) | 22.1 µM (inactive) | 17.4 µM (inactive) | 51.4 µM (inactive) | > 100 µM (inactive) | > 100 µM (inactive) | 77.3 µM (inactive) | 76.2 µM (inactive) | > 100 µM (inactive) | 27.9 µM (inactive) | < 0.01 µM (active) | > 95.9 µM (inactive) | 79.6 µM (inactive) | > 93.5 µM (inactive) |
| CC(C)COC(c1ccc2c(c1)OCO2)C(C)Br (stereo not given) | 23.4 µM (inactive) | 34 µM (inactive) | 22.6 µM (inactive) | 23.3 | 25.9 µM (inactive) | 32.8 µM (inactive) | 21.7 µM (inactive) | 21.6 µM (inactive) | 17.1 µM (inactive) | 18.7 µM (inactive) | 34.1 µM (inactive) | 19.7 µM (inactive) | 23.3 µM (inactive) | 48.6 µM (inactive) | 18.7 µM (inactive) | 20.7 µM (inactive) | 21.2 µM (inactive) | 26.5 µM (inactive) | 31.7 µM (inactive) | 22.5 µM (inactive) |
| O=c1c(Cl)nsnc1Cl | 1.7 µM (inactive) | 6.1 µM (inactive) | 1.83 µM (inactive) | 17.5 | 30.2 µM (inactive) | 16.4 µM (inactive) | 14.2 µM (inactive) | 18.7 µM (inactive) | 6.38 µM (inactive) | 2.02 µM (inactive) | 5.15 µM (inactive) | 20.1 µM (inactive) | 12.9 µM (inactive) | 18.3 µM (inactive) | 16.5 µM (inactive) | 20.2 µM (inactive) | 1.95 µM (inactive) | 15.1 µM (inactive) | 11.1 µM (inactive) | 6.4 µM (inactive) |
| O=S(=O)(c1ccccc1)[C@H]1[C@@H]2O[C@@H]2C[C@@H]1O | > 100 µM (inactive) | > 100 µM (inactive) | > 100 µM (inactive) | > 100 | > 100 µM (inactive) | > 100 µM (inactive) | > 100 µM (inactive) | > 100 µM (inactive) | > 100 µM (inactive) | > 100 µM (inactive) | > 100 µM (inactive) | > 100 µM (inactive) | > 100 µM (inactive) | > 100 µM (inactive) | > 100 µM (inactive) | > 100 µM (inactive) | > 100 µM (inactive) | > 100 µM (inactive) | > 100 µM (inactive) | > 100 µM (inactive) |
| COc1ccc(Cn2c(=O)c(OS(=O)(=O)C(F)(F)F)c(C)c3cc4ccccc4cc32)cc1 | > 100 µM (inactive) | > 100 µM (inactive) | > 100 µM (inactive) | > 100 | > 100 µM (inactive) | > 100 µM (inactive) | > 100 µM (inactive) | > 100 µM (inactive) | 86.1 µM (inactive) | > 100 µM (inactive) | 88.7 µM (inactive) | > 100 µM (inactive) | > 100 µM (inactive) | > 100 µM (inactive) | > 100 µM (inactive) | > 100 µM (inactive) | > 100 µM (inactive) | > 100 µM (inactive) | > 100 µM (inactive) | > 100 µM (inactive) |
